Test: xn = mol fraction of the nth substance listed
Conditions: 298.15 K, Liquid

ClCCCl [1,2-dichloroethane] + CN(C)C=O
mass density [kg/m3]
Conditions	x2 = 0.0805	x2 = 0.1978	x2 = 0.302	x2 = 0.397	x2 = 0.4988	x2 = 0.6023	x2 = 0.7054	x2 = 0.8005	x2 = 0.9071
100 kPa	1221.2	1186.2	1154.9	1126.5	1095.7	1064.5	1033.6	1005.2	972.8
500 kPa	1221.5	1186.6	1155.2	1126.8	1096	1064.8	1033.9	1005.5	973.1
1000 kPa	1222	1187	1155.7	1127.2	1096.4	1062.2	1034.3	1005.8	973.3
1500 kPa	1222.5	1187.5	1156.2	1127.6	1096.8	1065.6	1034.7	1006.2	973.7
2000 kPa	1223	1188	1156.6	1128	1097.2	1065.9	1035	1006.5	974
2500 kPa	1223.4	1188.4	1156.9	1128.4	1097.6	1066.4	1035.4	1006.9	974.3
3000 kPa	1223.9	1188.8	1157.4	1128.8	1098	1066.7	1035.7	1007.2	974.6
3500 kPa	1224.3	1189.3	1157.8	1129.3	1098.3	1067	1036.1	1007.6	974.9
4000 kPa	1224.8	1189.7	1158.2	1129.6	1098.7	1067.4	1036.4	1007.9	975.2
4500 kPa	1225.3	1190.1	1158.6	1130.1	1099.2	1067.8	1036.7	1008.2	975.5
5000 kPa	1225.8	1190.6	1159.1	1130.4	1099.5	1068.2	1037.1	1008.5	975.9
5500 kPa	1226.3	1191	1159.5	1130.9	1099.8	1068.5	1037.4	1008.9	976.2
6000 kPa	1226.7	1191.5	1159.9	1131.4	1100.2	1068.8	1037.7	1009.2	976.5
6500 kPa	1227.1	1191.9	1160.3	1131.6	1100.6	1069.3	1038.1	1009.5	976.8
7000 kPa	1227.6	1192.3	1160.8	1132.1	1101	1069.6	1038.5	1009.8	977.1
7500 kPa	1228	1192.7	1161.2	1132.5	1101.4	1070	1038.8	1010.2	977.4
8000 kPa	1228.5	1193.2	1161.6	1132.8	1101.8	1070.3	1039.2	1010.5	977.8
8500 kPa	1228.9	1193.7	1161.9	1133.2	1102.1	1070.7	1039.5	1010.8	978.2
9000 kPa	1229.3	1194	1162.4	1133.7	1102.5	1071.1	1039.9	1011.2	978.4
9500 kPa	1229.8	1194.5	1162.8	1134	1102.9	1071.4	1040.2	1011.5	978.7
9900 kPa	–	–	–	–	–	–	–	1011.8	–
10000 kPa	1230.4	1195	1163.2	1134.5	1103.3	1071.8	1040.6	–	979.1
10500 kPa	1230.8	1195.4	1163.6	1134.9	1103.7	1072.2	1040.9	1012.2	979.4
11000 kPa	1231.2	1195.8	1164.1	1135.3	1104	1072.5	1041.2	1012.4	979.7
11400 kPa	–	–	1164.4	–	–	–	–	–	–
11500 kPa	1231.7	1196.2	–	1135.7	1104.4	1072.9	1041.6	1012.8	980
11900 kPa	–	–	–	1136	–	–	1041.9	–	–
12000 kPa	1232.2	1196.7	1164.9	–	1104.8	1073.2	–	1013.2	980.3
12400 kPa	–	–	1165.2	–	–	–	1042.2	–	980.5
12500 kPa	1232.6	1197.1	–	1136.5	1105.2	1073.5	–	1013.5	–
12900 kPa	–	–	–	1136.8	–	–	–	–	–
13000 kPa	1233.1	1197.4	1165.6	–	1105.6	1073.9	1042.6	1013.8	980.9
13400 kPa	1233.4	–	–	–	–	–	–	–	–
13500 kPa	–	1197.9	1166	1137.3	1105.9	1074.2	1042.9	1014.1	981.2
13900 kPa	–	–	–	–	–	1074.6	–	–	–
14000 kPa	1233.9	1198.3	1166.4	1137.6	1106.2	–	1043.2	1014.4	981.5
14500 kPa	1234.3	1198.8	1166.8	1137.9	1106.6	1074.9	1043.5	1014.7	981.8
14900 kPa	–	–	–	1138.2	–	–	1043.8	–	–
15000 kPa	1234.7	1199.1	1167.2	–	1107	1075.2	–	1015	982.1
15400 kPa	–	–	–	–	–	–	–	–	982.3
15500 kPa	1235.2	1199.6	1167.6	1138.7	1107.3	1075.6	1044.2	1015.3	–
15900 kPa	–	1199.9	–	–	–	–	–	–	–
16000 kPa	1235.6	–	1168	1139	1107.7	1075.9	1044.5	1015.7	982.6
16400 kPa	–	1200.3	–	–	–	–	–	1015.9	–
16500 kPa	1236	–	1168.4	1139.4	1108	1076.2	1044.8	–	983
16900 kPa	–	–	–	1139.7	–	–	–	–	–
17000 kPa	1236.4	1200.7	1168.7	–	1108.4	1076.6	1045.1	1016.3	983.2
17500 kPa	1236.8	1201.1	1169.1	1140.1	1108.7	1076.9	1045.4	1016.6	983.5
17900 kPa	–	–	–	–	–	–	–	1016.9	–
18000 kPa	1237.2	1201.5	1169.5	1140.5	1109	1077.3	1045.7	–	983.8
18400 kPa	–	–	–	–	–	1077.6	–	–	–
18500 kPa	1237.7	1201.9	1169.9	1140.8	1109.4	–	1046.1	1017.2	984.1
19000 kPa	1238.2	1202.4	1170.2	1141.2	1109.9	1078	1046.4	1017.5	984.4
19500 kPa	1238.6	1202.7	1170.6	1141.6	1110.2	1078.3	1046.7	1017.8	984.7
20000 kPa	1239	1203.1	1171.1	1142.1	1110.6	1078.6	1047.08	1018.2	985.1
